# Target: T1, RAR-α (retinoic acid receptor α) (Homo sapiens, UniProt P10276)
# T1 construct: gene RARA; human recombinant RARα-LBD expressed in insect cells
# T1 sequence (P10276 183-417 limits assumed): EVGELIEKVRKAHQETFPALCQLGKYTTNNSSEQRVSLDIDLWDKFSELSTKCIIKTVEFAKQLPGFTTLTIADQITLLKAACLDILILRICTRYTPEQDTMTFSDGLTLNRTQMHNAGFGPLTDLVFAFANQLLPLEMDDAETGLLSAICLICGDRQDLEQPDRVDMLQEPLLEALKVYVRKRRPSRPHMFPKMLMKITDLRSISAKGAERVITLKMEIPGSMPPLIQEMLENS
# Experiment: radioligand competition binding (Eurofins Cerep)
row,Kd [µM],Compound
1,1.4,CC1=C(/C=C/C(C)=C/C=C/C(C)=C/c2cc(/C=C/C=C(C)/C=C/C3=C(C)CCCC3(C)C)cc[n+]2CCO)C(C)(C)CCC1 [A2E]
2,47,"CC(=C/C=C/C(C)=C/C=C/C=C(C)/C=C/C=C(C)/C=C/C(=O)O)/C=C/C(=O)O [NBX, norbixin]"

# Reference: publication PMC10932305, “RAR Inhibitors Display Photo-Protective and Anti-Inflammatory Effects in A2E Stimulated RPE Cells In Vitro through Non-Specific Modulation of PPAR or RXR Transactivation” (International Journal of Molecular Sciences, 2024)
